Data published in patent US11827646B2, “Compounds for treating spinal muscular atrophy” (Hoffmann-La Roche Inc., priority 2014, dated 2023).

How the values were obtained:
[1] = test system: full length SMN2 minigene mRNA (HEK293H cells stably transfected with SMN2-A minigene); assay: SMN2 minigene mRNA splicing RT-qPCR assay in cultured cells; format: cell-based; settings: Homo sapiens, HEK293-H, 24 hours, 7-point concentration curve, 1.5-fold increase relative to vehicle, read-out: EC1.5x minigene (EC1.5x concentration for production of full length SMN2 minigene mRNA)
Excerpt: The term “EC1.5x concentration for production of full length SMN2 minigene mRNA” (or “EC1.5x minigene”) is defined as that concentration of test compound that 1 s effective m increasing the amount of full length SMN2 minigene mRNA to a level 1.5-fold greater relative to that in vehicle-treated cells.
The reverse transcription-quantitative PCR-based (RT-qPCR) assay is used to quantify the level of the full length SMN2 minigene (referred to herein by the term “FL SMN2mini”) mRNA containing SMN2 exon 7 in a HEK293H cell line stably transfected with said minigene and treated with a test compound. Materials used and respective sources are listed below in Table 1.
The SMN2-A minigene construct was prepared as described in International Patent Application WO2009/151546A1 page 145 paragraph [00400] to page 147 paragraph [00412](incl. FIG. 1 and FIG. 3 therein).
HEK293H cells stably transfected with the SMN2-A minigene construct (10,000 cells/well) are seeded in 200 μL of cell culture medium (DMEM plus 10% FBS, with 200 μg/mL hygromycin) in 96-well flat-bottom plates and the plate is immediately swirled to ensure proper dispersal of cells and the formation of an even monolayer of cells. Cells are allowed to attach for 6 hours. Test compounds are serially diluted 3.16-fold in 100% DMSO to generate a 7-point concentration curve. A solution of test compound (1 μL, 200× in DMSO) is added to each cell-containing well and the plate is incubated for 24 hours in a cell culture incubator (37° C., 5% CO2, 100% relative humidity). 2 replicates are prepared for each test compound concentration. The cells are then lysed in the Cells-To-Ct lysis buffer and the lysate is stored at −80° C.
Full length SMN2-A minigene and GAPDH mRNA are quantified using the primers and probes referenced in Table 2. Primer SMN Forward A (SEQ ID NO.1) hybridizes to a nucleotide sequence in exon 7 (nucleotide 22 to nucleotide 40), primer SMN Reverse A (SEQ ID NO.2) hybridizes to a nucleotide sequence in the coding sequence of Firefly luciferase, SMN Probe A (SEQ ID NO.3) hybridizes to a nucleotide sequence in exon 7 (nucleotide 50 to nucleotide 54) and exon 8 (nucleotide 1 to nucleotide 21). The combination of these three oligonucleotides detects only SMN1 or SMN2 minigenes (RT-qPCR) and will not detect endogenous SMN1 or SMN2 genes.
The SMN forward and reverse primers are used at final concentrations of 0.4 μM. The SMN probe is used at a final concentration of 0.15 μM. The GAPDH primers are used at final concentrations of 0.2 μM and the probe at 0.15 μM.
The SMN2-minigene GAPDH mix (15 μL total volume) is prepared by combining 7.5 μL of 2×RT-PCR buffer, 0.4 μL of 25×RT-PCR enzyme mix, 0.75 μL of 20×GAPDH primer-probe mix, 4.0075 μL of water, 2 μL of 10-fold diluted cell lysate, 0.06 μL of 100 µM SMN forward primer, 0.06 μL of 100 μM SMN reverse primer, and 0.225 μL of 100 μM SMN probe.
PCR is carried out at the following temperatures for the indicated time: Step 1: 48° C. (15 min); Step 2: 95° C. (10 min); Step 3: 95° C. (15 sec); Step 4: 60° C. (1 min); then repeat Steps 3 and 4 for a total of 40 cycles.
Each reaction mixture contains both SMN2-A minigene and GAPDH primers/probe sets (multiplex design), allowing simultaneous measurement of the levels of two transcripts.
The increase in the abundance of the FL SMN2mini mRNA relative to that in cells treated with vehicle control is determined from real-time PCR data using a modified ΔΔCt method (as described in Livak and Schmittgen, Methods, 2001, 25:402-8). The amplification efficiency E is calculated from the slope of the amplification curve for FL SMN2mini and GAPDH individually. The abundance of FL SMN2mini and GAPDH mRNA are then calculated as (1+E)^−Ct, where Ct is the threshold value for each amplicon. The abundance of FL SMN2mini mRNA is normalized to GAPDH mRNA abundance. […]

[2] = test system: SMN protein in SMA patient fibroblast cells (GM03813); assay: SMN protein assay in cultured cells (SMN HTRF); format: cell-based; settings: Homo sapiens, SMA Type 1 patient fibroblasts, 48 hours; for EC (1.5-fold): 7-point concentration curve, 1.5 times SMN protein vs vehicle, read-out: EC1.5x SMN protein (EC1.5x concentration for SMN protein expression); for maximal fold induction: fold increase relative to vehicle control, read-out: max. fold increase of SMN protein
Excerpt: The term “EC1.5x concentration for SMN protein expression” (or “EC1.5x SMN protein”) is defined as that concentration of test compound that is effective in producing 1.5 times the amount of SMN protein in an SMA patient fibroblast cell compared to the amount produced from the vehicle control.
The SMN HTRF (homogeneous time resolved fluorescence) assay is used to quantify the level of SMN protein in SMA patient fibroblast cells treated with test compounds. Materials used and respective sources are listed below in Table 4.
Cells are thawed and cultured in DMEM-10% FBS for 72 hours. Cells are trypsinized, counted and re-suspended to a concentration of 25,000 cells/mL in DMEM-10% FBS. The cell suspensions are plated at 5,000 cells per well in a 96 well microtiter plate and incubated for 3 to […]. Test compounds are serially diluted 3.16-fold in 100% DMSO to generate a 7-point concentration curve. 1 μL of test compound solution is transferred to cell-containing wells and cells are incubated for 48 hours in a cell culture incubator (37° C., 5% CO2, […]). Triplicate samples are set up for each test compound concentration. After 48 hours, the supernatant is removed from the wells and 25 μL of the RIPA lysis buffer, containing protease inhibitors, is added to the wells and incubated with shaking at room temperature for 1 hour. 25 μL of the diluent is added and then 35 μL of the resulting lysate is transferred to a 384-well plate, where each well contains 5 μL of the antibody solution (1:100 dilution of anti-SMN d2 and anti-SMN kryptate in SMN reconstitution buffer). The plate is centrifuged for 1 minute to bring the solution to the bottom of the wells, then incubated overnight at room temperature. Fluorescence for each well of the plate at 665 nm and 620 nm is measured on an EnVision multilabel plate reader (Perkin-Elmer).
The normalized fluorescence signal is calculated for each sample, Blank and vehicle control well by dividing the signal at 665 nm by the signal at 620 nm. Normalizing the signal accounts for possible fluorescence quenching due to the matrix effect of the lysate. The ΔF value (a measurement of SMN protein abundance as a percent value) for each sample well is calculated by subtracting the normalized average fluorescence for the Blank control wells from the normalized fluorescence for each sample well, then dividing this difference by the normalized average fluorescence for the Blank control wells and multiplying the resulting value by 100. The ΔF value for each sample well represents the SMN protein abundance from test compound-treated samples. The ΔF value for each sample well is divided by the ΔF value for the vehicle control wells to calculate the fold increase in SMN protein abundance relative to the vehicle control. Table 5 provides EC1.5x concentrations for SMN protein expression that was obtained from the 7-point concentration data generated according to the above procedure for particular compounds of the present invention.
Table 6 provides the maximum fold increase of SMN protein that was obtained from the 7-point concentration data generated according to the above procedure for particular compounds of the present invention

Compound | EC (1.5-fold) [1] [µM] | EC (1.5-fold) [2] [µM] | maximal fold induction [2]
Cc1cn2nc(-c3cc(=O)n4cc(N5CCN(C)CC5)ccc4n3)ccc2n1 [Example 1, 2-(2-methylimidazo[1,2-b]pyridazin-6-yl)-7-(4-methylpiperazin-1-yl)pyrido[1,2-a]pyrimidin-4-one] | 0.0035 | 0.0108 | 1.84
Cc1cn2nc(-c3cc(=O)n4cc(N5CCN6CCC[C@@H]6C5)ccc4n3)ccc2n1 [Example 2, 7-[(8aR)-3,4,6,7,8,8a-hexahydro-1H-pyrrolo[1,2-a]pyrazin-2-yl]-2-(2-methylimidazo[1,2-b]pyridazin-6-yl)pyrido[1,2-a]pyrimidin-4-one] | 0.0038 | 0.0198 | 1.76
Cc1cn2nc(-c3cc(=O)n4cc(N5CCN6CCC[C@H]6C5)ccc4n3)cc(C)c2n1 [Example 3, 7-[(8aS)-3,4,6,7,8,8a-hexahydro-1H-pyrrolo[1,2-a]pyrazin-2-yl]-2-(2,8-dimethylimidazo[1,2-b]pyridazin-6-yl)pyrido[1,2-a]pyrimidin-4-one] | 0.0032 | 0.0256 | 1.81
Cc1cn2nc(-c3cc(=O)n4cc(N5CCN6CCC[C@@H]6C5)ccc4n3)cc(C)c2n1 [Example 4, 7-[(8aR)-3,4,6,7,8,8a-hexahydro-1H-pyrrolo[1,2-a]pyrazin-2-yl]-2-(2,8-dimethylimidazo[1,2-b]pyridazin-6-yl)pyrido[1,2-a]pyrimidin-4-one] | 0.0018 | 0.0157 | 1.76
Cc1cn2nc(-c3cc(=O)n4cc(N5CCN6CCC[C@@]6(C)C5)ccc4n3)cc(C)c2n1 [Example 5, 7-[(8aS)-8a-methyl-1,3,4,6,7,8-hexahydropyrrolo[1,2-a]pyrazin-2-yl]-2-(2,8-dimethylimidazo[1,2-b]pyridazin-6-yl)pyrido[1,2-a]pyrimidin-4-one] | 0.0006 | 0.0041 | 1.71
Cc1cn2nc(-c3cc(=O)n4cc(N5CCN6CCC[C@]6(C)C5)ccc4n3)cc(C)c2n1 [Example 6, 7-[(8aR)-8a-methyl-1,3,4,6,7,8-hexahydropyrrolo[1,2-a]pyrazin-2-yl]-2-(2,8-dimethylimidazo[1,2-b]pyridazin-6-yl)pyrido[1,2-a]pyrimidin-4-one] | 0.0028 | 0.011 | 1.84
Cc1cn2nc(-c3cc(=O)n4cc(N5C[C@@H](C)N[C@@H](C)C5)ccc4n3)cc(C)c2n1 [Example 7, 2-(2,8-dimethylimidazo[1,2-b]pyridazin-6-yl)-7-[(3S,5R)-3,5-dimethylpiperazin-1-yl]pyrido[1,2-a]pyrimidin-4-one] | 0.0037 | 0.0155 | 1.76
Cc1cn2nc(-c3cc(=O)n4cc(N5CCN[C@@H](C)C5)ccc4n3)cc(C)c2n1 [Example 8, 2-(2,8-dimethylimidazo[1,2-b]pyridazin-6-yl)-7-[(3S)-3-methylpiperazin-1-yl]pyrido[1,2-a]pyrimidin-4-one] | 0.0003 | 0.0059 | 1.85
Cc1cn2nc(-c3cc(=O)n4cc(N5CCN[C@H](C)C5)ccc4n3)cc(C)c2n1 [Example 9, 2-(2,8-dimethylimidazo[1,2-b]pyridazin-6-yl)-7-[(3R)-3-methylpiperazin-1-yl]pyrido[1,2-a]pyrimidin-4-one] | 0.0001 | 0.0025 | 1.92
Cc1cn2nc(-c3cc(=O)n4cc(N5CCCNCC5)ccc4n3)cc(C)c2n1 [Example 10, 7-(1,4-diazepan-1-yl)-2-(2,8-dimethylimidazo[1,2-b]pyridazin-6-yl)pyrido[1,2-a]pyrimidin-4-one] | 0.0064 | 0.0228 | 1.95
Cc1cn2nc(-c3cc(=O)n4cc(N5CCNC6(CC6)C5)ccc4n3)ccc2n1 [Example 19, 7-(4,7-diazaspiro[2.5]octan-7-yl)-2-(2-methylimidazo[1,2-b]pyridazin-6-yl)pyrido[1,2-a]pyrimidin-4-one] |  | 0.0298 | 1.83
Cc1cn2nc(-c3cc(=O)n4cc(N5C[C@@H](C)N[C@@H](C)C5)cc(C)c4n3)cc(C)c2n1 [Example 26, 2-(2,8-dimethylimidazo[1,2-b]pyridazin-6-yl)-7-[(3R,5S)-3,5-dimethylpiperazin-1-yl]-9-methyl-pyrido[1,2-a]pyrimidin-4-one] |  | 1.23 | 1.52
Cc1cn2nc(-c3cc(=O)n4cc(N5CCNC(C)(C)C5)cc(C)c4n3)cc(C)c2n1 [Example 27, 2-(2,8-dimethylimidazo[1,2-b]pyridazin-6-yl)-7-(3,3-dimethylpiperazin-1-yl)-9-methyl-pyrido[1,2-a]pyrimidin-4-one] |  | 0.127 | 1.57
